Measurements as given in patent US10875874B2, “Ginkgolide B derivative and preparation method and use thereof” (Chengdu Baiyu Ginkgolide Pharmaceuticals Co., Ltd., priority 2015, dated 2020).
Marks after values point to notes of the source that are not given here.

Key:
Type in all cases: in vivo, rat
[1] = Weekly food intake of SHR rats; details: captopril 27 mg/kg intragastric
Procedure: (§1) 2.1 Grouping and administration of animals: 112 SHR rats (the female and male SHR rats are half and half, and the female rats are not pregnant) with the body weight of 200-250 g are taken, the rats are enabled to adapt to a laboratory for a period of 5 d, blood pressure is measured once at a day to enable the rats to adapt to the environment and detect stimulation. Then, weighing and numbering are carried out, and the SHR rats are equally divided into 14 groups randomly (each group comprises 8 rats), i.e., an SHR rat model control group, a positive control group (captopril, 27 mg/kg), a BZ large-dose group (120 mg/kg/d), a BZ small-dose group (60 mg/kg/d), a BA large-dose group (120 mg/kg/d), a BA small-dose group (60 mg/kg/d), a BL large-dose group (120 mg/kg/d), a BL small-dose group (60 mg/kg/d), a BM large-dose group (120 mg/kg/d), a BM small-dose group (60 mg/kg/d), a BD large-dose group (120 mg/kg/d), a BD small-dose group (60 mg/kg/d), a GB large-dose group (120 mg/kg/d) and a GB small-dose group (60 mg/kg/d). In addition, 8 healthy Wistar rats are taken as a normal control group. Intragastric administration is performed on the rats of each drug group separately according to the above-mentioned doses by 1 mL/100 g body weight, intragastric administration is performed on the rats of the normal control group and the rats of the SHR rat model control group with an equal volume of distilled water, and administration is performed continuously for 8 weeks.
(§2) 2.2 General state: during observation, conditions such as mind, water drinking, food intake, bowel movement, hair color, body weight and range of motion of rats are observed. Irritable degrees of the rats are divided into III levels: a level I means that the rats are free of obvious response when necks of the rats are seized; a level II means that the rats scream and startle when the necks of the rats are seized; and a level III means that the rats bite or rats of same cages frequently fight when the necks of the rats are seized.
(§3) 3.1 Influence on general state of spontaneously hypertensive rats: the rats of the normal control group are normal in food intake, drinking and motion conditions, sensitive in response, healthy and glossy in hair color, good in mental state and free of any unusual response; the rats of the SHR model group gradually present that back hair is fluffy, clustered and dim, the appetite is reduced, the body weight is reduced, the mind is dispirited and irritable, and the rats are prone to the behaviors of intense resisting, attacking and so on during administration and blood pressure detection, and irritable degrees are mostly changed to a level II and a level III from a level I; and after single administration of ginkgolide B and derivatives thereof, behavioral general state observations of rats of each group are free of obvious difference from those of the model control group.

[2] = tested on: spontaneously hypertensive rats (SHR); experiment: Caudal artery systolic pressure of spontaneously hypertensive rats, single administration; details: captopril 27 mg/kg intragastric single administration, x ± s, n = 8
Procedure: as §1
(§4) 2.3 Blood pressure measuring: caudal artery systolic pressure of rats is measured with a Bp-6 noninvasive blood pressure measuring system. Under the condition that the rats are calm, the systolic pressure is continuously measured for 3 times, and the average value of the measured systolic pressure is taken as a pressure measuring result. Observation indexes: (1) single-administration pressure lowering effect: blood pressure of the rats is measured before administration and blood pressure conditions are measured 30 min, 60 min, 90 min and 120 min after first administration; and (2) continuous-administration pressure lowering condition: blood pressure is separately measured 30 min after administration at 1 d, 7 d, 13 d, 19 d, 25 d, 35 d, 49 d and 56 d, the blood pressure is repeatedly measured for 3 times at a day, and the average value of obtained values is taken as a final blood pressure value.

[3] = Weekly body weight of SHR rats; details: captopril 27 mg/kg intragastric
Procedure: as §1, §2, §3

[4] = tested on: spontaneously hypertensive rats (SHR); experiment: Caudal artery systolic pressure of spontaneously hypertensive rats, 8 weeks of continuous medication; details: captopril 27 mg/kg intragastric continuous, x ± s, n = 8
Procedure: as §1, §4

Q: Which results are given for `C[C@H](CS)C(=O)N1CCC[C@H]1C(=O)O` [Positive control, captopril, reference compound]?
A: Average dairy food intake ([1]; week 0): 18.4 g/day; Average dairy food intake ([1]; week 1): 20.0^▴ g/d; Average dairy food intake ([1]; week 2): 19.1^▴ g/d; Average dairy food intake ([1]; week 3): 19.5^▴ g/d; Average dairy food intake ([1]; week 4): 19.9^▴ g/d; Average dairy food intake ([1]; week 5): 21.4^▴▴ g/d; Average dairy food intake ([1]; week 6): 23.8^▴▴ g/d; Average dairy food intake ([1]; week 7): 24.6^▴▴ g/d; Average dairy food intake ([1]; week 8): 26.3^▴▴ g/d; Systolic pressure ([2]; 30 min): 149.75 ± 8.09 mmHg; Systolic pressure ([2]; 60 min): 140.95 ± 9.50 mmHg; Systolic pressure ([2]; 90 min): 139.23 ± 6.04 mmHg; Systolic pressure ([2]; 120 min): 134.41 ± 8.31 mmHg; Systolic pressure ([2]; before administration): 161.24 ± 11.03 mmHg; Body weight ([3]; week 0): 230.5 g; Body weight ([3]; week 1): 235.1 g; Body weight ([3]; week 2): 245.4^▴ g; Body weight ([3]; week 3): 255.9^▴▴ g; Body weight ([3]; week 4): 260.5^▴▴ g; Body weight ([3]; week 5): 266.3^▴▴ g; Body weight ([3]; week 6): 271.0^▴▴ g; Body weight ([3]; week 7): 280.6^▴▴ g; Body weight ([3]; week 8): 290.7^▴▴ g; Systolic pressure ([4]; 1 d, 30 min after administration): 145.17 ± 6.42 mmHg; Systolic pressure ([4]; 7 d, 30 min after administration): 142.05 ± 7.24 mmHg; Systolic pressure ([4]; 13 d, 30 min after administration): 140.36 ± 9.20 mmHg; Systolic pressure ([4]; 19 d, 30 min after administration): 138.39 ± 7.26 mmHg; Systolic pressure ([4]; 25 d, 30 min after administration): 145.02 ± 7.30 mmHg; Systolic pressure ([4]; 35 d, 30 min after administration): 139.08 ± 6.72 mmHg; Systolic pressure ([4]; 49 d, 30 min after administration): 135.47 ± 8.47 mmHg; Systolic pressure ([4]; 56 d, 30 min after administration): 130.39 ± 4.65 mmHg; Systolic pressure ([4]; before administration): 161.24 ± 11.03 mmHg
